Experimental data from patent publication US20080280879A1, “SUBSTITUTED HETEROCYCLIC DERIVATIVES AND THEIR PHARMACEUTICAL USE AND COMPOSITIONS” (priority 2007, published 2008).
Values after ≈ are worked out from the molar mass of the structure shown.

Legend:
Type in all cases: cell-based, Staphylococcus aureus
Staph aureus 1146 [1] = assay: MIC, microtiter broth dilution (CLSI M7-A7), Assay 1, Table 12 column B, no serum; conditions: for MIC, column B: Staph aureus 1146, Assay 1, no serum; for MIC: Staphylococcus aureus, 1146, Staph aureus 1146, Assay 1, no serum
Method in brief: (§1)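 CLSI microdilution (M7-A7; M100-S16 interpretation); DMSO stocks at 10 mg/ml; endpoint = no macroscopically visible growth; MIC μg/ml, geometric mean if run more than once.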

Staph aureus 2811 = assay: MIC, microtiter broth dilution (CLSI M7-A7), Assay 1, Table 12 column D, no serum; conditions: for MIC, column D: Staph aureus 2811, Assay 1, no serum; for MIC: Staphylococcus aureus, 2811, Staph aureus 2811, Assay 1, no serum
Method in brief: as §1

Staph aureus 1095 MRSA = assay: MIC, microtiter broth dilution (CLSI M7-A7), Assay 1, Table 12 column A, no serum; conditions: Assay 1, no serum; for MIC: Staphylococcus aureus, MRSA
Method in brief: as §1

Staph aureus 2812 = assay: MIC, microtiter broth dilution (CLSI M7-A7), Assay 1, Table 12 column E, no serum; conditions: for MIC, column E: Staph aureus 2812, Assay 1, no serum; for MIC: Staphylococcus aureus, 2812, Staph aureus 2812, Assay 1, no serum
Method in brief: as §1

Staph aureus 1146 [2] = assay: MIC in Mueller-Hinton Broth with 50% pooled inactivated human serum, Assay 1, Table 12; conditions: for MIC, column C: Staph aureus 1146, Assay 1, 50% human serum; for MIC: Staphylococcus aureus, 1146, Staph aureus 1146, Assay 1, 50% human serum, read-out: MIC, column C
Method in brief: as §1

Compound	MIC, column B (Staph aureus 1146 [1])	MIC, column D (Staph aureus 2811)	MIC (Staph aureus 1095 MRSA)	MIC, column E (Staph aureus 2812)	MIC, column C (Staph aureus 1146 [2])	MIC (Staph aureus 1146 [1])	MIC (Staph aureus 2811)	MIC (Staph aureus 2812)	MIC (Staph aureus 1146 [2])	MIC, column A (Staph aureus 1095 MRSA)
COc1ccc2nccc(C(CC[C@@H]3CCN(C4CC(c5ccccc5)C4)C[C@@H]3C(=O)O)OC)c2c1 (stereo partly drawn) [Example 10, (3R,4R)-4-[3-methoxy-3-(6-methoxyquinolin-4-yl)propyl]-1-(3-phenylcyclobutyl)piperidine-3-carboxylic acid]	0.5 µg/mL (≈ 1.02 µM)	0.5 µg/mL (≈ 1.02 µM)	1 µg/mL (≈ 2.05 µM)	0.5 µg/mL (≈ 1.02 µM)	16 µg/mL (≈ 32.7 µM)	–	–	–	–	–
COc1ccc2ccnc(CCCC3(C(=O)O)CCN(C4CC(c5ccccc5)C4)CC3)c2c1 (centres unmarked) [Example 121, 4-[3-(7-methoxyisoquinolin-1-yl)propyl]-1-(3-phenylcyclobutyl)piperidine-4-carboxylic acid]	–	–	2 µg/mL (≈ 4.36 µM)	–	–	1 µg/mL (≈ 2.18 µM)	1 µg/mL (≈ 2.18 µM)	1 µg/mL (≈ 2.18 µM)	> 64 µg/mL	–
COc1ccc2ncc(Cl)c(C(O)CC[C@@H]3CCN(C4CC(c5cc(F)ccc5F)C4)C[C@@H]3C(=O)O)c2c1 (stereo partly drawn) [Example 186, (3R,4R)-4-[3-(3-chloro-6-methoxyquinolin-4-yl)-3-hydroxypropyl]-1-[3-(2,5-difluorophenyl)cyclobutyl]piperidine-3-carboxylic acid]	–	–	–	<0.0625 µg/mL	2.00 µg/mL (≈ 3.67 µM)	< 0.0625 µg/mL	< 0.0625 µg/mL	–	–	<0.0625 µg/mL
COc1ccc2nccc(C(O)CC[C@@H]3CCN(C4CC(c5nc(C)no5)C4)C[C@@H]3C(=O)O)c2c1 (stereo partly drawn) [Example 102, (3R,4R)-4-[3-hydroxy-3-(6-methoxyquinolin-4-yl)propyl]-1-[3-(3-methyl-1,2,4-oxadiazol-5-yl)cyclobutyl]piperidine-3-carboxylic acid]	–	–	16 µg/mL (≈ 33.3 µM)	–	–	16 µg/mL (≈ 33.3 µM)	8 µg/mL (≈ 16.6 µM)	16 µg/mL (≈ 33.3 µM)	64 µg/mL (≈ 133 µM)	–
COc1ccc2nccc(C(O)CC[C@@H]3CCN(C4CC5(CCCCC5)C4)C[C@@H]3C(=O)O)c2c1 (stereo partly drawn) [Example 56, (3R,4R)-4-[3-hydroxy-3-(6-methoxyquinolin-4-yl)propyl]-1-spiro[3.5]non-2-ylpiperidine-3-carboxylic acid]	–	–	2 µg/mL (≈ 4.29 µM)	–	–	0.5 µg/mL (≈ 1.07 µM)	0.5 µg/mL (≈ 1.07 µM)	0.5 µg/mL (≈ 1.07 µM)	2 µg/mL (≈ 4.29 µM)	–
3-{[2-(3-chloro-6-methoxyquinolin-4-yl)ethyl]amino}-1-(cis-3-phenylcyclobutyl)pyrrolidine-3-carboxylic acid [Example 113]	<=.0625 μg/ml	0.125 µg/mL	–	0.25 µg/mL	16 µg/mL	–	–	–	–	0.125 µg/mL
COc1ccc2ncc(F)c(C(O)CC[C@@H]3CCN(C4CC(c5cc(F)ccc5F)C4)C[C@@H]3C(=O)O)c2c1 (single isomer, unassigned) [Example 60]	<=.0625 μg/ml	<=.0625 μg/ml	–	<=.0625 μg/ml	4 µg/mL (≈ 7.57 µM)	–	–	–	–	0.125 µg/mL (≈ 0.236 µM)
COc1ccc2nccc(C(O)CC[C@@H]3CCN(C4CC(CC5CCCC5)C4)C[C@@H]3C(=O)O)c2c1 (some centres unmarked) [Example 49]	<=.0625 μg/ml	<=.0625 μg/ml	–	<=.0625 μg/ml	0.25 µg/mL (≈ 0.52 µM)	–	–	–	–	0.125 µg/mL (≈ 0.26 µM)
COc1ccc2nccc(C(O)CC[C@@H]3CCN(C4CC(c5ccc(C)cc5)C4)C[C@@H]3C(=O)O)c2c1 (stereo partly drawn) [Example 6, (3R,4R)-4-[3-hydroxy-3-(6-methoxyquinolin-4-yl)propyl]-1-[3-(4-methylphenyl)cyclobutyl]piperidine-3-carboxylic acid]	–	–	2 µg/mL (≈ 4.09 µM)	–	–	1 µg/mL (≈ 2.05 µM)	2 µg/mL (≈ 4.09 µM)	1 µg/mL (≈ 2.05 µM)	16 µg/mL (≈ 32.7 µM)	–
COc1ccc2ncc(Cl)c(CCNC3(C(=O)O)CCCN(CC4CC4c4cc(F)ccc4F)CC3)c2c1 (centres unmarked) [Example 156, 4-{[2-(3-chloro-6-methoxyquinolin-4-yl)ethyl]amino}-1-{[2-(2,5-difluorophenyl)cyclopropyl]methyl}azepane-4-carboxylic acid]	–	–	1 µg/mL (≈ 1.84 µM)	–	–	0.25 µg/mL (≈ 0.46 µM)	0.5 µg/mL (≈ 0.919 µM)	0.25 µg/mL (≈ 0.46 µM)	> 33 µg/mL	–
COc1ccc2ncc(Cl)c(C(O)CC[C@@H]3CCN(C4CC(c5cc(F)ccc5F)C4)C[C@@H]3C(=O)O)c2c1 (stereo partly drawn) [Example 209, (3R,4R)-4-[3-(3-chloro-6-methoxyquinolin-4-yl)-3-hydroxypropyl]-1-[3-(2,5-difluorophenyl)cyclobutyl]piperidine-3-carboxylic acid]	<0.0625 µg/mL	<0.0625 µg/mL	–	<0.0625 µg/mL	1.00 µg/mL (≈ 1.83 µM)	–	–	–	–	<0.0625 µg/mL
COc1ccc2nccc([C@@H](O)CC[C@@H]3CCN(C4CC(c5ccc(C(F)(F)F)cc5F)C4)C[C@@H]3C(=O)O)c2c1 (stereo partly drawn) [Example 194, (3R,4R)-1-{3-[2-fluoro-4-(trifluoromethyl)phenyl]cyclobutyl}-4-[(3S)-3-hydroxy-3-(6-methoxyquinolin-4-yl)propyl]piperidine-3-carboxylic acid]	–	–	4 µg/mL (≈ 7.14 µM)	–	–	2 µg/mL (≈ 3.57 µM)	2 µg/mL (≈ 3.57 µM)	2 µg/mL (≈ 3.57 µM)	> 64 µg/mL	–
COc1ccc2nccc(C(O)CC[C@@H]3CCN(C4CC(C5CCCCC5)C4)C[C@@H]3C(=O)O)c2c1 (stereo partly drawn) [Example 44, (3R,4R)-1-(3-cyclohexylcyclobutyl)-4-[3-hydroxy-3-(6-methoxyquinolin-4-yl)propyl]piperidine-3-carboxylic acid]	–	–	0.5 µg/mL (≈ 1.04 µM)	–	–	0.25 µg/mL (≈ 0.52 µM)	0.125 µg/mL (≈ 0.26 µM)	0.125 µg/mL (≈ 0.26 µM)	2 µg/mL (≈ 4.16 µM)	–
COc1ccc2nccc(C(O)CC[C@@H]3CCN(C4CC(c5ccccc5)C4)C[C@@H]3C(N)=O)c2c1 (some centres unmarked) [Example 144]	<=.0625 μg/ml	<=.0625 μg/ml	–	<=.0625 μg/ml	0.25 µg/mL (≈ 0.528 µM)	–	–	–	–	<=.0625 μg/ml
COc1ccc2nccc(C(O)CC[C@@H]3CCN(C4CC(Cc5cc(F)ccc5F)C4)C[C@@H]3C(=O)O)c2c1 (stereo partly drawn) [Example 202, (3R,4R)-1-[3-(2,5-difluorobenzyl)cyclobutyl]-4-[3-hydroxy-3-(6-methoxyquinolin-4-yl)propyl]piperidine-3-carboxylic acid]	–	–	8 µg/mL (≈ 15.2 µM)	–	–	2 µg/mL (≈ 3.81 µM)	2 µg/mL (≈ 3.81 µM)	4 µg/mL (≈ 7.62 µM)	64 µg/mL (≈ 122 µM)	–
COc1ccc2ncc(F)c(C(O)CC[C@@H]3CCN(C4CC(c5c(F)cccc5F)C4)C[C@@H]3C(=O)O)c2c1 (single isomer, unassigned) [Example 19]	<=.0625 μg/ml	<=.0625 μg/ml	–	<=.0625 μg/ml	0.5 µg/mL (≈ 0.946 µM)	–	–	–	–	<=.0625 μg/ml
COc1ccc2nccc(C(O)CCC3CCN(C[C@@H]4C[C@H]4c4ccccc4)CC3C(=O)O)c2c1 (relative stereo) [Example 25, 4-[3-hydroxy-3-(6-methoxyquinolin-4-yl)propyl]-1-{[(trans)-2-phenylcyclopropyl]methyl}piperidine-3-carboxylic acid]	–	–	2 µg/mL (≈ 4.21 µM)	–	–	2 µg/mL (≈ 4.21 µM)	1 µg/mL (≈ 2.11 µM)	1 µg/mL (≈ 2.11 µM)	4 µg/mL (≈ 8.43 µM)	–
COc1ccc2nccc(C(O)CC[C@@H]3CCN(C4CC(c5nc(C6CCC6)no5)C4)C[C@@H]3C(=O)O)c2c1 (stereo partly drawn) [Example 163, (3R,4R)-1-[3-(3-cyclobutyl-1,2,4-oxadiazol-5-yl)cyclobutyl]-4-[3-hydroxy-3-(6-methoxyquinolin-4-yl)propyl]piperidine-3-carboxylic acid]	–	–	> 64 µg/mL	–	–	64 µg/mL (≈ 123 µM)	> 64 µg/mL	> 64 µg/mL	> 64 µg/mL	–
COc1ccc2nccc(C(O)CC[C@@H]3CCN(C4CC(C5CCOCC5)C4)C[C@@H]3C(=O)O)c2c1 (stereo partly drawn) [Example 50, (3R,4R)-4-[3-hydroxy-3-(6-methoxyquinolin-4-yl)propyl]-1-[3-(tetrahydro-2H-pyran-4-yl)cyclobutyl] piperidine-3-carboxylic acid]	–	–	32 µg/mL (≈ 66.3 µM)	–	–	32 µg/mL (≈ 66.3 µM)	64 µg/mL (≈ 133 µM)	64 µg/mL (≈ 133 µM)	32 µg/mL (≈ 66.3 µM)	–
COc1ccc2ncc(Cl)c(C(O)CC[C@@H]3CCN(C4CC(c5cc(F)ccc5F)C4)C[C@@H]3C(=O)O)c2c1 (stereo partly drawn) [Example 203, (3R,4R)-4-[3-(3-chloro-6-methoxyquinolin-4-yl)-3-hydroxypropyl]-1-[3-(2,5-difluorophenyl)cyclobutyl]piperidine-3-carboxylic acid]	0.125 µg/mL (≈ 0.229 µM)	0.125 µg/mL (≈ 0.229 µM)	–	0.125 µg/mL (≈ 0.229 µM)	16.0 µg/mL (≈ 29.4 µM)	–	–	–	–	0.250 µg/mL (≈ 0.459 µM)
COc1ccc2ncc(F)c(CCCC3(C(=O)O)CCN(C4CC(c5c(F)cccc5F)C4)C3)c2c1 (centres unmarked) [Example 181, 1-[3-(2,6-difluorophenyl)cyclobutyl]-3-[3-(3-fluoro-6-methoxyquinolin-4-yl)propyl]pyrrolidine-3-carboxylic acid]	<0.0625 µg/mL	<0.0625 µg/mL	–	<0.0625 µg/mL	16.0 µg/mL (≈ 32.1 µM)	–	–	–	–	<0.0625 µg/mL
(3R,4R)-1-(1-cyclobutylazetidin-3-yl)-4-[3-hydroxy-3-(6-methoxyquinolin-4-yl)propyl]piperidine-3-carboxylic acid [Example 130]	>64 µg/mL	>64 µg/mL	–	>64 µg/mL	>64 µg/mL	–	–	–	–	>64 µg/mL
